Experimental data: patent US20250197382A1, “KIF18A INHIBITOR” (WIGEN BIOMEDICINE TECHNOLOGY (SHANGHAI) CO., LTD., priority 2022, published 2025)

biological target: Recombinant human KIF18A (1-467His-tagged) protein (Homo sapiens (Human), UniProt Q8NI77); assay: KIF18A enzyme assay (microtubule-stimulated ATPase activity, ADP-Glo); format: biochemical; conditions: 30 nM KIF18A, ATP 75 μM, read-out: inhibitory activity against KIF18A IC50
Experimental: Biological Example 1. Assay for In Vitro Inhibition of Enzymatic Activity of KIF18A by Compounds of the Present Invention
KIF18A enzyme assay: The enzymatic activity of KIF18A after treatment with the compounds was measured by an assay of microtubule-stimulated ATPase activity. ADP generated from the ATPase reaction was measured in this assay. The compounds were serially diluted 2-fold in DMSO over a range of 22 concentration points. Recombinant human KIF18A (1-467His-tagged) protein was expressed using a baculovirus system. Concentrations of KIF18A protein, microtubules, and ATP in the reaction were optimized for a standardized homogenous enzyme assay using an ADP-Glo kinase/ATPase assay kit. A reaction buffer [(15 mM Tris, pH 7.5), 10 mM MgCl2, 0.01% PluronicF-68, 1 μM paclitaxel, and 30 μg/mL pig microtubules] was prepared. The compounds and KIF18A protein (30 nM) were added to the prepared reaction buffer, and the reaction mixture was incubated at room temperature for 15 min, followed by addition of ATP (Km, 75 μM). The resulting reaction mixture was incubated at room temperature for another 15 min. 5 μL of ADP-Glo reagent and 2.5 μL of the reaction mixture were mixed and the resulting mixture was incubated at room temperature for 40 min. 10 μL of ADP-Glo detection reagent was added and the mixture was incubated at room temperature for 40 min. Luminescence was measured using a microplate reader and compared with that of the DMSO group, and then the inhibition percentages and IC50 values of the compounds were calculated.

Sequence of Recombinant human KIF18A (1-467His-tagged) protein (Q8NI77 1-467): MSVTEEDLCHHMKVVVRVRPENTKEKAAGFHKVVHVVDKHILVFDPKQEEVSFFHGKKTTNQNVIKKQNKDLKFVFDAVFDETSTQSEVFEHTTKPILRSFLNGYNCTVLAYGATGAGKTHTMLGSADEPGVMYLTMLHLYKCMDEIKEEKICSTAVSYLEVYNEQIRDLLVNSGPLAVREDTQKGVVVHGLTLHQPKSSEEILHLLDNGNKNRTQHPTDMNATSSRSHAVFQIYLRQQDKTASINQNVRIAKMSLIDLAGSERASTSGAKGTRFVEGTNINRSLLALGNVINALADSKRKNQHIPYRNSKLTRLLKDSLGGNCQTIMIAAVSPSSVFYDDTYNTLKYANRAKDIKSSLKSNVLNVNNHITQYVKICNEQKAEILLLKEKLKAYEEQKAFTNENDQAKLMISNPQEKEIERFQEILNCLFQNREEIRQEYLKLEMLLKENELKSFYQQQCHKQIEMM
Sequence of Recombinant human KIF18A (1-467His-tagged) protein (P02550 whole entry partner): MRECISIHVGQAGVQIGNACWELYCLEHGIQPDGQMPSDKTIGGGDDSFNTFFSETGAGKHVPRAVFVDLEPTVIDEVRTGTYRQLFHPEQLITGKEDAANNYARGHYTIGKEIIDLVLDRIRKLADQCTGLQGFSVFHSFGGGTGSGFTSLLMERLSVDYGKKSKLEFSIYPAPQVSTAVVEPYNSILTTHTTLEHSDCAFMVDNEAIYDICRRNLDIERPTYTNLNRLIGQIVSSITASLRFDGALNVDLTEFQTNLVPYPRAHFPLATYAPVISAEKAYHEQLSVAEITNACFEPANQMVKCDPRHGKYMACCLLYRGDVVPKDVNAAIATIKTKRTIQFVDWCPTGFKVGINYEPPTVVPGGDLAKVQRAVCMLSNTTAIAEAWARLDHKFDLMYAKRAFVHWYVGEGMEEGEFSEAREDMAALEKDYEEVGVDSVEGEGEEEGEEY
Sequence of Recombinant human KIF18A (1-467His-tagged) protein (P02554 whole entry partner): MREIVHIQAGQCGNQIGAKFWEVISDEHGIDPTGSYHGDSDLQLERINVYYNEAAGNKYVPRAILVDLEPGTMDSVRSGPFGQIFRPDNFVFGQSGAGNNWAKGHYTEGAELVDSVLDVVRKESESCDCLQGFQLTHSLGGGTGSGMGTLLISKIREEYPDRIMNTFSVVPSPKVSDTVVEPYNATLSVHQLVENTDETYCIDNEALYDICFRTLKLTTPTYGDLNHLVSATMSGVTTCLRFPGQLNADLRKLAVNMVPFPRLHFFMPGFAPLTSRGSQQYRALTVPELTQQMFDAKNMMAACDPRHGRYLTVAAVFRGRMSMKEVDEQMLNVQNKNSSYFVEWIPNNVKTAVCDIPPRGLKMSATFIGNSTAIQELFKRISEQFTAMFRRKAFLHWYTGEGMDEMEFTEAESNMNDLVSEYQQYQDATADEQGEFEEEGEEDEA

| IC50 [nM] | SMILES |
| --- | --- |
| ≤ 100 | C[C@@H]1CN(c2nc(C(=O)Nc3ccc(NS(=O)(=O)[C@H](C)CO)cc3N3CCC4(CC3)CC4)cc3c2OCC3)CCO1 [Compound 112] |
| ≤ 100 | C[C@@H]1CN(c2cc(NC(=O)c3ccc(NS(=O)(=O)[C@@H](C)CO)cc3N3CCC4(CC3)CC4)cc3c2N(C)CC3)CCO1 [Compound 271] |
| ≤ 100 | Cn1ccc2cc(C(=O)Nc3ccc(S(=O)(=O)NCCO)cc3N3CCC4(CC3)CC4)cc(N3CCC(F)CC3)c21 [Compound 441] |
| ≤ 100 | O=C(Nc1ccc(NS(=O)(=O)CCO)cc1N1CCC2(CC1)CC2)c1cc2c(c(N3CCOCC3)n1)OCC2 [Compound 108] |
| ≤ 100 | C[C@H]1CN(c2cc(NC(=O)c3ccc(NS(=O)(=O)CCO)cc3N3CCC4(CC3)CC4)cc3c2N(C)CC3)CCO1 [Compound 259] |
| ≤ 100 | C[C@@H]1CN(c2cc(NC(=O)c3ccc(NS(=O)(=O)[C@H](C)CO)cc3N3CCC4(CC3)CC4)cc3c2N(C)CC3)CCO1 [Compound 272] |
| ≤ 100 | C[C@H](CO)NS(=O)(=O)c1ccc(NC(=O)c2cc(N3CCO[C@H](C)C3)c3c(ccn3C)c2)c(N2CCC3(CC2)CC3)c1 [Compound 448] |
| ≤ 100 | C[C@@H]1CN(c2nc(C(=O)Nc3ccc(S(=O)(=O)N[C@@H](C)CO)cc3N3CCC4(CC3)CC4)cc3ccoc23)CCO1 [Compound 255] |
| ≤ 100 | C[C@@H](CO)S(=O)(=O)Nc1ccc(NC(=O)c2cc3c(c(N4CCC(F)(F)CC4)n2)OCC3)c(N2CCC3(CC2)CC3)c1 [Compound 109] |
| ≤ 100 | O=C(Nc1cc2c(c(N3CCC(F)(F)CC3)c1)NCC2)c1ccc(NS(=O)(=O)CCO)cc1N1CCC2(CC1)CC2 [Compound 523] |
| ≤ 100 | C[C@@H]1CN(c2cc(C(=O)Nc3ccc(NS(=O)(=O)[C@H](C)CO)cc3N3CCC4(CC3)CC4)cc3ccn(C)c23)CCO1 [Compound 432] |
| ≤ 100 | C[C@@H](CO)NS(=O)(=O)c1ccc(NC(=O)c2cc3ccoc3c(N3CCC(F)(F)CC3)n2)c(N2CCC3(CC2)CC3)c1 [Compound 253] |
| ≤ 100 | Cn1cnc2cc(NC(=O)c3ccc(NS(=O)(=O)CCO)cc3N3CCC4(CC3)CC4)cc(N3CCC(F)(F)CC3)c21 [Compound 528] |
| ≤ 100 | O=C(Nc1ccc(NS(=O)(=O)CCO)cc1N1CCC2(CC1)CC2)c1cc(N2CC3CC3C2)c2occc2c1 (stereo not shown) [Compound 170] |
| ≤ 100 | O=C(Nc1ccc(S(=O)(=O)NCCO)cc1N1CCC2(CC1)CC2)c1cc2c(c(OCCC(F)(F)F)c1)OCC2 [Compound 53] |
| ≤ 100 | O=C(Nc1cc2ccoc2c(N2CCC(F)CC2)n1)c1ccc(NS(=O)(=O)CCO)cc1N1CCC2(CC1)CC2 [Compound 201] |
| ≤ 100 | CN1CCc2cc(NC(=O)c3ccc(S(=O)(=O)NCCO)cc3N3CCC4(CC3)CC4)cc(OC3CCC3)c21 [Compound 279] |
| ≤ 100 | CN1CCc2cc(NC(=O)c3ccc(S(=O)(=O)NCCO)cc3N3CCC4(CC3)CC4)nc(N3CCC4(CC4)C3)c21 [Compound 342] |
| ≤ 100 | C[C@@H]1CN(c2nc(NC(=O)c3ccc(NS(=O)(=O)CCO)cc3N3CCC4(CC3)CC4)cc3ccn(C)c23)CCO1 [Compound 450] |
| ≤ 100 | C[C@@H]1CN(c2nc(C(=O)Nc3ccc(NS(=O)(=O)CCO)cc3N3CCC4(CC3)CC4)cc3ccoc23)CCO1 [Compound 226] |
| ≤ 100 | C[C@H]1CN(c2nc(NC(=O)c3ccc(NS(=O)(=O)CCO)cc3N3CCC4(CC3)CC4)cc3c2N(C)CC3)CCO1 [Compound 323] |
| ≤ 100 | CN1CCc2cc(C(=O)Nc3ccc(S(=O)(=O)NCCO)cc3N3CCC4(CC3)CC4)nc(N3CCC(C)(F)C3)c21 (stereo not shown) [Compound 376] |
| ≤ 100 | C[C@H](CO)NS(=O)(=O)c1ccc(C(=O)Nc2cc3ccoc3c(N3CCO[C@H](C)C3)n2)c(N2CCC3(CC2)CC3)c1 [Compound 224] |

| IC50 [nM] | SMILES |
| --- | --- |
| ≤ 100 | C[C@@H]1CN(c2nc(NC(=O)c3ccc(NS(=O)(=O)[C@H](C)CO)cc3N3CCC4(CC3)CC4)cc3ccn(C)c23)CCO1 [Compound 464] |
| ≤ 100 | CN1CCc2cc(C(=O)Nc3ccc(S(=O)(=O)NCCO)cc3N3CCC4(CC3)CC4)nc(OC3CCC3)c21 [Compound 375] |
| ≤ 100 | O=C(Nc1ccc(NS(=O)(=O)CCO)cc1N1CCC2(CC1)CC2)c1cc(N2CC(F)(F)C2)c2occc2c1 [Compound 164] |
| ≤ 100 | O=C(Nc1cc2c(c(N3CCOCC3)n1)OCC2)c1ccc(NS(=O)(=O)CCO)cc1N1CCC2(CC1)CC2 [Compound 76] |
| ≤ 100 | O=C(Nc1ccc(NS(=O)(=O)CCO)cc1N1CCC2(CC1)CC2)c1cc2ccoc2c(OCCC(F)(F)F)n1 [Compound 229] |
| ≤ 100 | C[C@H]1CN(c2nc(NC(=O)c3ccc(S(=O)(=O)NCCO)cc3N3CCC4(CC3)CC4)cc3c2N(C)CC3)CCO1 [Compound 339] |
| ≤ 100 | C[C@@H](CO)S(=O)(=O)Nc1ccc(C(=O)Nc2cc3c(c(N4CCC(F)(F)CC4)n2)OCC3)c(N2CCC3(CC2)CC3)c1 [Compound 77] |
| ≤ 100 | C[C@@H](CO)S(=O)(=O)Nc1ccc(C(=O)Nc2cc3ccn(C)c3c(N3CCC(F)(F)CC3)n2)c(N2CCC3(CC2)CC3)c1 [Compound 461] |
| ≤ 100 | C[C@H]1CN(c2cc(C(=O)Nc3ccc(NS(=O)(=O)CCO)cc3N3CCC4(CC3)CC4)cc3ccn(C)c23)CCO1 [Compound 419] |
| ≤ 100 | CN1CCc2cc(C(=O)Nc3ccc(S(=O)(=O)NCCO)cc3N3CCC4(CC3)CC4)cc(N3CCOCC3)c21 [Compound 316] |
| ≤ 100 | O=C(Nc1ccc(NS(=O)(=O)CCO)cc1N1CCC2(CC1)CC2)c1cc2ccoc2c(OC2CCC2)n1 [Compound 231] |
| ≤ 100 | CC1(F)CCN(c2cc(NC(=O)c3ccc(NS(=O)(=O)CCO)cc3N3CCC4(CC3)CC4)cc3c2OCC3)C1 (stereo not shown) [Compound 8] |
| ≤ 100 | CN1CCc2cc(C(=O)Nc3ccc(NS(=O)(=O)CCO)cc3N3CCC4(CC3)CC4)cc(N3CC4CC4C3)c21 (stereo not shown) [Compound 298] |
| ≤ 100 | O=C(Nc1ccc(S(=O)(=O)NCCO)cc1N1CCC2(CC1)CC2)c1cc2ccoc2c(N2CC3CC3C2)n1 (stereo not shown) [Compound 250] |
| ≤ 100 | CN1CCc2cc(C(=O)Nc3ccc(NS(=O)(=O)CCO)cc3N3CCC4(CC3)CC4)nc(NC(C)(C)CO)c21 [Compound 363] |
| ≤ 100 | CN1CCc2cc(C(=O)Nc3ccc(S(=O)(=O)NCCO)cc3N3CCC4(CC3)CC4)cc(N3CC(F)(F)C3)c21 [Compound 308] |
| ≤ 100 | C[C@@H]1CN(c2nc(C(=O)Nc3ccc(NS(=O)(=O)[C@@H](C)CO)cc3N3CCC4(CC3)CC4)cc3ccn(C)c23)CCO1 [Compound 495] |
| ≤ 100 | CC(C)(CO)Nc1cc(C(=O)Nc2ccc(NS(=O)(=O)CCO)cc2N2CCC3(CC2)CC3)cc2ccoc12 [Compound 171] |
| ≤ 100 | O=C(Nc1ccc(NS(=O)(=O)CCO)cc1N1CCC2(CC1)CC2)c1cc2c(c(N3CCC(F)(F)CC3)n1)OCCC2 [Compound 548] |
| ≤ 100 | C[C@H](CO)NS(=O)(=O)c1ccc(C(=O)Nc2cc(N3CCO[C@H](C)C3)c3occc3c2)c(N2CCC3(CC2)CC3)c1 [Compound 160] |
| ≤ 100 | C[C@H]1CN(c2cc(NC(=O)c3ccc(S(=O)(=O)NCCO)cc3N3CCC4(CC3)CC4)cc3ccoc23)CCO1 [Compound 147] |
| ≤ 100 | C[C@H](CO)NS(=O)(=O)c1ccc(C(=O)Nc2cc3ccn(C)c3c(N3CCO[C@H](C)C3)n2)c(N2CCC3(CC2)CC3)c1 [Compound 480] |
| ≤ 100 | Cn1ccc2cc(NC(=O)c3ccc(NS(=O)(=O)CCO)cc3N3CCC4(CC3)CC4)cc(NC(C)(C)CO)c21 [Compound 395] |
